Assays:
Septoria tritici [1] = assay: Example F-B: in vivo curative Septoria tritici test (wheat); settings: Zymoseptoria tritici, 504 h, sprayed 48 hours after inoculation, evaluated 21 days after inoculation, read-out: Efficacy in % Example F-B
Description: Example F: In Vivo Septoria tritici Test (Wheat); Comparison of Pyridinyloxy-Pyridyl Compounds According to the Invention Vs. Compounds Known from WO-A 2010/146116 [table] To produce a suitable preparation of active compound, 1 part by weight of active compound or active compound combination is mixed with the stated amounts of solvent and emulsifier, and the concentrate is diluted with water to the desired concentration. Example F-B: In Vivo Curative Septoria tritici Test (Wheat) To test for curative activity, young plants are inoculated with a spore suspension of Septoria tritici and remain for 48 hours in an incubation cabinet at a temperature of approximately 20° C. and a relative atmospheric humidity of approximately 100%. 48 hours after the incubation, the plants are sprayed with the preparation of active compound or active compound combination at the stated rate of application. After application the plants remain for 60 hours at a temperature of approximately 15° C. in a translucent incubation cabinet at a relative atmospheric humidity of approximately 100%. Afterwards, the plants are placed in the greenhouse at a temperature of approximately 15° C. and a relative atmospheric humidity of approximately 80%. The test is evaluated 21 days after the inoculation. 0% means an efficacy which corresponds to that of the untreated control, while an efficacy of 100% means that no disease is observed.

Septoria tritici [2] = assay: Example F-A: in vivo preventive Septoria tritici test (wheat); settings: Zymoseptoria tritici, 504 h, evaluated 21 days after inoculation, read-out: Efficacy in % Example F-A
Description: Example F: In Vivo Septoria tritici Test (Wheat); Comparison of Pyridinyloxy-Pyridyl Compounds According to the Invention Vs. Compounds Known from WO-A 2010/146116 [table] To produce a suitable preparation of active compound, 1 part by weight of active compound or active compound combination is mixed with the stated amounts of solvent and emulsifier, and the concentrate is diluted with water to the desired concentration. Example F-A: In Vivo Preventive Septoria tritici Test (Wheat) To test for preventive activity, young plants are sprayed with the preparation of active compound or active compound combination at the stated rate of application. After the spray coating has been dried, the plants are sprayed with a spore suspension of Septoria tritici. The plants remain for 48 hours in an incubation cabinet at approximately 20° C. and a relative atmospheric humidity of approximately 100% and afterwards for 60 hours at approximately 15° C. in a translucent incubation cabinet at a relative atmospheric humidity of approximately 100%. The plants are placed in the greenhouse at a temperature of approximately 15° C. and a relative atmospheric humidity of approximately 80%. The test is evaluated 21 days after the inoculation. 0% means an efficacy which corresponds to that of the untreated control, while an efficacy of 100% means that no disease is observed.

Septoria tritici [3] = assay: Example F-C: in vivo 5 days preventive Septoria tritici test (wheat); settings: Zymoseptoria tritici, 504 h, inoculated 5 days after spraying, evaluated 21 days after inoculation, read-out: Efficacy in % Example F-C
Description: Example F: In Vivo Septoria tritici Test (Wheat); Comparison of Pyridinyloxy-Pyridyl Compounds According to the Invention Vs. Compounds Known from WO-A 2010/146116 [table] To produce a suitable preparation of active compound, 1 part by weight of active compound or active compound combination is mixed with the stated amounts of solvent and emulsifier, and the concentrate is diluted with water to the desired concentration. Example F-C: In Vivo 5 Days Preventive Septoria tritici Test (Wheat) To test for preventive and long-lasting activity, young plants are sprayed with a preparation of active compound or active compound combination at the stated rate of application. After the spray coating has been dried, the plants are placed in the greenhouse at a temperature of approximately 15° C. and a relative atmospheric humidity of approximately 80%. 5 days later the plants are sprayed with a spore suspension of Septoria tritici. The plants remain for 48 hours in an incubation cabinet at approximately 20° C. and a relative atmospheric humidity of approximately 100% and afterwards for 60 hours at approximately 15° C. in a translucent incubation cabinet at a relative atmospheric humidity of approximately 100%. Then the plants are placed in the greenhouse at a temperature of approximately 15° C. and a relative atmospheric humidity of approximately 80%. The test is evaluated 21 days after the inoculation. 0% means an efficacy which corresponds to that of the untreated control, while an efficacy of 100% means that no disease is observed.

**Q.** For `Clc1ccc(Oc2cc(Cl)c(C3(Cn4cncn4)OCCO3)cn2)cc1` [reference compound], which pest or weed control at 500 ppm (Septoria tritici [1]) is on record?
**A.** The pest or weed control at 500 ppm was 89%.

**Q.** And the pest or weed control at 500 ppm (Septoria tritici [2])?
**A.** Its pest or weed control at 500 ppm is 89%.

**Q.** And the pest or weed control at 500 ppm (Septoria tritici [3])?
**A.** Its pest or weed control at 500 ppm is 80%.
